The values that follow come from publication PMC12186257, “Serendipitous and Systematic Chemoproteomic Discovery of MBLAC2, HINT1, and NME1‑4 Inhibitors from Histone Deacetylase-Targeting Pharmacophores” (ACS Chemical Biology, 2025).

The test has as its target recombinant HINT1 (hHint1) (Homo sapiens, UniProt P49773). Put plainly: HINT1 enzyme activity assay (TrpA hydrolysis, fluorescence). The conditions noted are these: hHint1 0.002 µM, TrpA 0.5 µM, 25 °C. The format is biochemical. An excerpt:
While the biologically relevant substrates of HINT1 have not been clearly elucidated, the protein has been implicated in opioid receptor signaling, − regulation of the melanoma-associated transcription factor MITF, , and DNA damage repair. These functions position HINT1 as a potential pharmacological target for treating conditions such as opioid resistance or melanoma. The only reported HINT1-targeting pharmacophores are nucleoside-based nonhydrolyzable substrate analogs, such as the carbamate TrpGC (Figure a). , We evaluated the inhibitory potential of KV-24 and KV-30 in enzyme activity assays using recombinant HINT1. […] This discrepancy could be attributed to reduced affinity for the recombinant enzyme due to the absence of post-translational modifications (PTMs), cofactors, or interaction partners that enhance drug binding. Alternatively, it might result from substrate dilution in the lysate, whereas high substrate concentrations in the enzyme activity assay require the inhibitor to compete more effectively.
Mouse brain proteomics – LC-MS/MS. Proteome analysis of brain mouse tissue samples was performed on a micro-flow LC timsTOF HT setup described in detail in REF14. Liquid chromatography in micro-flow mode was performed on a Vanquish Neo UHPLC System (Thermo Fisher Scientific) at a flow rate of 50 µL/min. […] 10 µg of peptide mix was injected and analyzed using a 58 min gradient starting at 1% B up to 45% B (1 h method). […]
Mouse proteomics data analysis. The data files were analyzed with DIA-NN 1.8.1. […] The resulting protein group tables were further analyzed by Perseus 1.6.2.2. […]
CME of transferrin and confocal microscopy analyses.For transferrin uptake experiments HeLa cells were seeded on Matrigel-coated coverslips, and incubated with 0.1 % DMSO, or with 100 µM dynasore, 20 µM KV50, 2 µM KV65, or 2 µM KV79 in media containing 10% FCS at 37°C for 20 h. […] All inhibitor treatments were performed in duplicate, to enable quantification of surface levels of transferrin receptors, and to assess the capability of transferrin receptor endocytosis. […]

Chain of recombinant HINT1 (hHint1) (P49773 whole entry): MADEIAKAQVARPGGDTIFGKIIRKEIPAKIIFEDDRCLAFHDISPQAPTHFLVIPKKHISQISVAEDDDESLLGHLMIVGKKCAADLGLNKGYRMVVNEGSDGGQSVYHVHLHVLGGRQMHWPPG

What is called IC50 is the midpoint of a concentration-inhibition curve. Take `O=C(NO)c1ccc(-c2nc3ccccc3n3cccc23)cc1` [KV-24]: the IC50 was 12.3 µM. As for `O=C(NO)c1ccc(-c2nc3ccccc3c3ccccc23)cc1` [KV-30], the IC50 stood at 12.6 µM.
